Test results taken from patent US11414424B2, “Cardiac sarcomere inhibitors” (Cytokinetics, Inc., priority 2018, dated 2022).

Tested on: bovine cardiac myofibrils
Assay: Myofibril assay: PK/LDH-coupled steady-state ATPase activity of skinned bovine cardiac myofibrils
Format: biochemical
Settings: Ca2+ activating to 75% of maximal rate
Procedure: To evaluate the effect of compounds on the ATPase activity of full-length cardiac myosin in the context of the native sarcomere, skinned myofibril assays were performed. Bovine cardiac myofibrils were obtained by homogenizing bovine cardiac left ventricular tissue in the presence of a detergent such as triton X-100. Such treatment removes membranes and a majority of the soluble cytoplasmic proteins but leaves intact the cardiac sarcomeric acto-myosin apparatus. Myofibril preparations retain the ability to hydrolyze ATP in a Ca^2+ regulated manner. ATPase activities of such myofibril preparations in the presence and absence of compounds were assayed at Ca^2+ concentrations activating to a defined fraction of the maximal rate (i.e., […], 75%). Small molecule agents were assessed for their ability to inhibit the steady-state ATPase activity of bovine cardiac myofibrils using pyruvate kinase and lactate dehydrogenase (PK/LDH)-coupled enzyme system. This assay regenerates myosin-produced ADP into ATP by oxidizing NADH, producing an absorbance change at 340 nm. Prior to testing small molecule agents, the bovine cardiac myofibrils were assessed for their calcium responsiveness and the calcium concentration that achieves either a 50% (pCa50) or 75% (pCa75) activation of the myofibril system was chosen as the final condition for assessing the inhibitory activity of the small molecule agents. All enzymatic activity was measured in a buffered solution containing 12 mM PIPES (piperazine-N,N′-bis(2-ethanesulfonic acid), 2 mM magnesium chloride at pH 6.8 (PM 12 buffer). Final assay conditions were 1 mg/mL of bovine cardiac myofibrils, 4 U/mL pyruvate kinase, 6 U/mL lactate dehydrogenase, 50 μM ATP, 0.1 mg/mL BSA (bovine serum albumin), 10 ppm antifoam, 1 mM DTT, 0.5 mM NADH, 1.5 mM PEP, 0.6 mM EGTA, and an amount of CaCl2 sufficient to achieve either 50% or 75% activation of the myofibril ATPase activity. Results for compounds tested are provided in Table A. Compounds tested were prepared in accordance with the synthetic procedures described herein.

Row | CDMF75 IC15 | further results | SMILES
1 | >39000 nM |  | O=C1C(C2CC(O)C2)N(Cc2ccc(F)cc2)C(=O)CN1c1ccc(Cl)cc1F (single isomer, unassigned) [Compound 866B, 1-(4-chloro-2-fluorophenyl)-4-(4-fluorobenzyl)-3-(3-hydroxycyclobutyl)piperazine-2,5-dione]
2 | 2300 nM |  | O=C1C(C2CC(O)C2)N(Cc2ccc(F)cc2)C(=O)CN1c1ccc(Cl)cc1F (single isomer, unassigned) [Compound 866C, 1-(4-chloro-2-fluorophenyl)-4-(4-fluorobenzyl)-3-(3-hydroxycyclobutyl)piperazine-2,5-dione]
3 | >39000 nM |  | O=C1C(C2CC(O)C2)N(Cc2ccc(F)cc2)C(=O)CN1c1ccc(Cl)cc1F (single isomer, unassigned) [Compound 866D, 1-(4-chloro-2-fluorophenyl)-4-(4-fluorobenzyl)-3-(3-hydroxycyclobutyl)piperazine-2,5-dione]
4 | 2200 nM |  | NC(=O)[C@H]1C[C@]2(C1)C(=O)N(c1ncc(Cl)cc1F)CC(=O)N2Cc1ccc(C(F)F)cc1 (single isomer, unassigned) [Compound 875A, 8-(5-chloro-3-fluoropyridin-2-yl)-5-(4-(difluoromethyl)benzyl)-6,9-dioxo-5,8-diazaspiro[3.5]nonane-2-carboxamide]
5 | 3200 nM |  | NC(=O)[C@H]1C[C@]2(C1)C(=O)N(c1ncc(Cl)cc1F)CC(=O)N2Cc1ccc(C(F)F)cc1 (single isomer, unassigned) [Compound 875B, 8-(5-chloro-3-fluoropyridin-2-yl)-5-(4-(difluoromethyl)benzyl)-6,9-dioxo-5,8-diazaspiro[3.5]nonane-2-carboxamide]
6 |  | CDMF75 IC15 (listed as 867A): 2100 nM | O=C1CN(c2ccc(Cl)cc2F)C(=O)C2(CC(O)C2)N1Cc1ccc(F)cc1 (single isomer, unassigned) [Diastereomer 867A, 8-(4-chloro-2-fluorophenyl)-5-(4-fluorobenzyl)-2-hydroxy-5,8-diazaspiro[3.5]nonane-6,9-dione]
7 |  | CDMF75 IC15 (listed as 867B): 1700 nM | O=C1CN(c2ccc(Cl)cc2F)C(=O)C2(CC(O)C2)N1Cc1ccc(F)cc1 (single isomer, unassigned) [Diastereomer 867B, 8-(4-chloro-2-fluorophenyl)-5-(4-fluorobenzyl)-2-hydroxy-5,8-diazaspiro[3.5]nonane-6,9-dione]
8 |  | CDMF75 IC15 (listed as 838A): 2300 nM | O=C1C(C23CC(O)(C2)C3)N(Cc2ccc(C(F)(F)F)cc2)C(=O)CN1c1ncc(Cl)cc1F (single isomer, unassigned) [Enantiomer 838A, 1-(5-chloro-3-fluoropyridin-2-yl)-3-(3-hydroxybicyclo[1.1.1]pentan-1-yl)-4-(4-(trifluoromethyl)benzyl)piperazine-2,5-dione]
9 |  | CDMF75 IC15 (listed as 838B): >39000 nM | O=C1C(C23CC(O)(C2)C3)N(Cc2ccc(C(F)(F)F)cc2)C(=O)CN1c1ncc(Cl)cc1F (single isomer, unassigned) [Enantiomer 838B, 1-(5-chloro-3-fluoropyridin-2-yl)-3-(3-hydroxybicyclo[1.1.1]pentan-1-yl)-4-(4-(trifluoromethyl)benzyl)piperazine-2,5-dione]
10 | 1700 nM |  | N#Cc1ccc(N2CC(=O)N(Cc3ccc(Cl)cc3)C3(CCN(C(=O)C4COC4)C3)C2=O)c(F)c1 (stereo in doubt) [Compound 210, (S)-4-(6-(4-chlorobenzyl)-2-(oxetane-3-carbonyl)-7,10-dioxo-2,6,9-triazaspiro[4.5]decan-9-yl)-3-fluorobenzonitrile]
11 | 900 nM |  | N#Cc1ccc(N2CC(=O)N(Cc3ccc(Cl)cc3)C3(CCN(C(=O)C4CCC4)C3)C2=O)c(F)c1 (stereo in doubt) [Compound 212, (S)-4-(6-(4-chlorobenzyl)-2-(cyclobutanecarbonyl)-7,10-dioxo-2,6,9-triazaspiro[4.5]decan-9-yl)-3-fluorobenzonitrile]
